From paper PMC7946228, “Discovery of novel candidates for anti-liposarcoma therapies by medium-scale high-throughput drug screening” (PLoS ONE, 2021)
pIC50: −log10 of the molar value. Like-named read-outs stand apart in the source and are kept apart here. Values belong to the molecule of their own block, whether it stands above or below them.

Experiments:
[1] = tested on: liposarcoma cell lines; test: TUNEL apoptosis assay by flow cytometry; type: cell-based, human; conditions: growth arresting concentration, 17-72h, majority of cell lines
Method: (§1) Cells were treated with drugs at the concentrations corresponding to previously established growth arresting concentrations and collected between 17 and 72h. Time of collection was individual for every drug/cell line combination; cells were collected after the beginning of complete growth inhibition (based on the growth curves data) but only when first signs of morphological change or cell death were visible (estimated microscopically approximately every 2h). After methanol fixation, cells were barcoded with different combinations of Pacific Blue/Pacific Orange dyes (Thermo Fisher Scientific) for different drug treatments. After mixing, cells were incubated in the TUNEL reaction mix for 1h at 37°C, according to the manufacturer’s instructions (Roche, Germany), stained with Streptavidin-Cy5 conjugated Ab and digested with RNAse. Cells were counter-stained with propidium iodide and analyzed using LSR II Flow Cytometer (BD Biosciences, NJ, USA. The data were processed with FlowJo Version 7.6.5 (Tree Star, Ashland, USA). The gating strategy is presented in Fig 3A. Cy-5 positive cells (as compared to control sample) were calculated as apoptotic. Cell cycles of non-apoptotic cells were analyzed using the built in FlowJo Cell Cycle Analysis module. Three independent biological replicates were done for each cell line/drug combination with exception of FU-DDLS-1 and T1000 –for which we only had two replicates available.

[2] = tested on: liposarcoma cell lines; test: Drug withdrawal, reversibility of growth arrest; type: cell-based, human; conditions: for reversibility of growth inhibition after drug removal: then 72h without drug, except T778 with MLN9708
Method: (§2) The cellular proliferation rate was measured using the IncuCyte ZOOM live-cell imaging system (Essen Bioscience, Birmingham, UK) with the corresponding software application (version 2013BRev1). First the growth rate for each cell line was established to estimate the seeding numbers of cells corresponding to 15–30% of confluence at the start of the experiment and maximum 70% after 72h. The drug treatment was initiated approximately 18h after seeding. The proliferation rate was measured as cell confluence over time through the acquisition of photographs under phase contrast every third hour for the entire duration of the drug treatment. During the drug treatment, media were not changed, and cells were not split. The growth reducing drug concentration was defined as lowest drug concentration leading to significant decrease of cellular growth between 40 and 72h after start of treatment. To determine that concentration, plots were generated using IncuCyte software and differences in growth between 40 and 72h were calculated using least-square means with the ‘emmeans’ R package version 1.4.3 [25]. Growth arresting concentrations were defined as minimal drug concentration under which cell confluence between 96 and 120h increases by less than 3%. Though growth arrest occurred much earlier, these time points ensured that the growth arrest is a stable phenomenon. These growth arresting concentrations were used for drug withdrawal, apoptosis and cell cycle experiments. All the data were verified with the plots. The presented values correspond to median values from two (T449, all compounds) to five (all cell lines, triptolide) biological replicates.
An important prerequisite for clinical implementation of these compounds as treatment for liposarcoma is irreversibility of the induced growth inhibition. We thus assessed if the drugs were only transiently cytostatic, which is especially important in case of the compounds that seem to work mainly via cell cycle arrest (APO866, GSK2126458). Cells were treated with the compounds at growth arresting concentrations for 120h after which the compounds were removed and cell numbers were monitored for another 72h. […] To irreversibly arrest cell proliferation GSK2126458 had to be used at 10x higher concentrations (100x for GOT3) (S5 Fig). Those concentrations are above physiological ranges (see Table 2), and these effects should be accounted for assessing use of GSK2126458 in clinic.

[3] = tested on: liposarcoma cell lines; test: Cell cycle analysis of non-apoptotic cells (propidium iodide); type: cell-based, human; conditions: growth arresting concentration, non-apoptotic fraction
Method: as §1

[4] = cited from earlier work
[5] = tested on: LS2 liposarcoma cell line; test: CellTiter-Glo viability, GR50, 72h; type: cell-based, human; conditions: LS2, 72h, read-out: Half maximum effective concentration corrected for cell growth (GR50)
Method: (§3) Cell viability was measured using the CellTiter-Glo Luminescent Cell Viability Assay (Promega, Wisconsin, United States). For each experiment the same cell numbers were seeded as for the proliferation experiments. Seven drug concentrations were used, starting from 100μM with 10-fold dilutions and also a vehicle control appropriate for each drug (DMSO or ethanol). After 72h of drug or vehicle control treatment levels of ATP were measured with CellTiter-Glo. The data from six to nine biological replicates, each with three technical replicates were collected. A nonlinear regression model with different four-parameter log-logistic function was used for modelling of the drug dose-response using ‘GRmetrics’ R package version 1.8.1 [26]. The calculated GR50 metric is equivalent to the IC50 metric but takes into account the growth rate of cells. Therefore, it estimates better the effect of the compound on cell viability and allows for comparison between different cell lines with different growth rates.

[6] = tested on: T1000 liposarcoma cell line; test: CellTiter-Glo viability, GR50, 72h; type: cell-based, human; conditions: T1000, 72h, read-out: Half maximum effective concentration corrected for cell growth (GR50)
Method: as §3

[7] = tested on: T449 liposarcoma cell line; test: CellTiter-Glo viability, GR50, 72h; type: cell-based, human; conditions: T449, 72h, read-out: Half maximum effective concentration corrected for cell growth (GR50)
Method: as §3

[8] = tested on: GOT3 liposarcoma cell line; test: CellTiter-Glo viability, GR50, 72h; type: cell-based, human; conditions: GOT3, 72h, read-out: Half maximum effective concentration corrected for cell growth (GR50)
Method: as §3

[9] = tested on: SA-4 liposarcoma cell line; test: CellTiter-Glo viability, GR50, 72h; type: cell-based, human; conditions: SA-4, 72h, read-out: Half maximum effective concentration corrected for cell growth (GR50)
Method: as §3

[10] = tested on: LPS853 liposarcoma cell line; test: CellTiter-Glo viability, GR50, 72h; type: cell-based, human; conditions: LPS 853, 72h, read-out: Half maximum effective concentration corrected for cell growth (GR50)
Method: as §3

[11] = tested on: SW872 liposarcoma cell line; test: CellTiter-Glo viability, GR50, 72h; type: cell-based, human; conditions: SW 872, 72h, read-out: Half maximum effective concentration corrected for cell growth (GR50)
Method: as §3

[12] = tested on: LiSa-2 liposarcoma cell line; test: CellTiter-Glo viability, GR50, 72h; type: cell-based, human; conditions: LiSa-2, 72h, read-out: Half maximum effective concentration corrected for cell growth (GR50)
Method: as §3

[13] = tested on: NRH-LS1 liposarcoma cell line; test: CellTiter-Glo viability, GR50, 72h; type: cell-based, human; conditions: NRH-LS1, 72h, read-out: Half maximum effective concentration corrected for cell growth (GR50)
Method: as §3

[14] = tested on: LPS510 liposarcoma cell line; test: CellTiter-Glo viability, GR50, 72h; type: cell-based, human; conditions: LPS 510, 72h, read-out: Half maximum effective concentration corrected for cell growth (GR50)
Method: as §3

[15] = tested on: T778 liposarcoma cell line; test: CellTiter-Glo viability, GR50, 72h; type: cell-based, human; conditions: T778, 72h, read-out: Half maximum effective concentration corrected for cell growth (GR50)
Method: as §3

[16] = tested on: FU-DDLS-1 liposarcoma cell line; test: CellTiter-Glo viability, GR50, 72h; type: cell-based, human; conditions: FU-DDL S-1, 72h, read-out: Half maximum effective concentration corrected for cell growth (GR50)
Method: as §3

[17] = tested on: LPS141 liposarcoma cell line; test: CellTiter-Glo viability, GR50, 72h; type: cell-based, human; conditions: LPS 141, 72h, read-out: Half maximum effective concentration corrected for cell growth (GR50)
Method: as §3

[18] = tested on: liposarcoma cell lines; test: IncuCyte cell proliferation assay (growth reducing/arresting concentration); type: cell-based, human; conditions: complete growth arrest between 96 and 120h
Method: as §2, with “15-30%” for “15–30%”, “'[…]” for “‘emmeans’ R”, “([…],” for “(T449,”

[19] = 120h treatment at growth arresting concentration
[20] = intravenous, phase I, maximum tolerated dose

pIC50 ([5]; Homo sapiens): 6.96
pIC50 ([6]; Homo sapiens): 7.85
pIC50 ([7]; Homo sapiens): 8.00
pIC50 ([8]; Homo sapiens): 7.55
pIC50 ([9]; Homo sapiens): 7.07
pIC50 ([10]; Homo sapiens): 7.30
pIC50 ([11]; Homo sapiens, SW872): 6.40
pIC50 ([12]; Homo sapiens): 7.27
pIC50 ([13]; Homo sapiens): 6.33
pIC50 ([14]; Homo sapiens): 7.09
pIC50 ([15]; Homo sapiens): 7.28
pIC50 ([16]; Homo sapiens): 7.02
pIC50 ([17]; Homo sapiens, LPS141): 6.74
SMILES: COc1ncc(-c2ccc3nccc(-c4ccnnc4)c3c2)cc1NS(=O)(=O)c1ccc(F)cc1F [GSK2126458]
apoptosis (increase in % of apoptotic cells) [1]: ≤ 5%
reversibility of growth inhibition after drug removal [2, 19]: All of the tested cell lines regained their growth rate
time to regain growth rate after withdrawal ([2]; all tested cell lines, 120h treatment at growth arresting concentration): ≤ 3 h
concentration needed for irreversible growth arrest relative to growth arresting concentration ([2]; cell lines that resumed growth, 100x for GOT3 with GSK2126458): 10 x higher
cell cycle phase in which cells are blocked [3]: G1 phase
Cmax ([4]; phase I trial of multiple tumor types): ~0.1 µM
Cmax ([4]; read-out: clinically relevant concentration (Cmax or Css), values show Cmax or Css (italics), patients): 0.1 µM

SMILES: CC(C)C[C@H](NC(=O)CNC(=O)c1cc(Cl)ccc1Cl)B1OC(=O)C(CC(=O)O)(CC(=O)O)O1 [MLN9708]
apoptosis (increase in % of apoptotic cells) [1]: above 5%
reversibility of growth inhibition after drug removal [2, 19]: irreversibly inhibited growth of all tested cell lines
concentration required to completely arrest more than half of the cell lines [18]: at least 1 μM
cell cycle phase in which cells are blocked [3]: less specific arrest
Cmax ([4]; human, in vivo): 0.03 to 0.3 µM
Cmax [4, 20]: ≤ 1.4 µM
Css [4, 20]: 0.03 to 0.3 µM
pIC50 [5]: 6.20
pIC50 [6]: 6.33
pIC50 [7]: 5.99
pIC50 [8]: 7.00
pIC50 [9]: 6.49
pIC50 [10]: 7.02
pIC50 [11]: 6.26
pIC50 [12]: 6.13
pIC50 [13]: 6.13
pIC50 [14]: 6.08
pIC50 [15]: 6.11
pIC50 [16]: 6.20
pIC50 [17]: 6.28
